This is an account of results in patent US11399539B2, “Heterocyclic compound and harmful arthropod controlling agent containing same” (Sumitomo Chemical Company, Limited, priority 2016, dated 2022).

The subject of this assay is cabbage aphids (Brevicoryne brassicae). Kind of assay: Test Example 8 and Comparative Test: spray on cabbage seedling infested with cabbage aphids. It counts as in vivo. The conditions noted are these: Comparative Test according to Test example 8.
Take `CCS(=O)(=O)c1cc(C(F)(F)F)cnc1-n1ccc(C(F)(F)F)cc1=O` [A-48]: the “Controlling value at 500 ppm (%)” value worked out at 93%.
With `CCS(=O)(=O)c1cc(C(F)(F)F)cnc1-n1cnc(C(F)(F)F)cc1=O` [C-33], the “Controlling value at 500 ppm (%)” value is on record as 77%.
The same measure for `O=c1cc(C(F)(F)F)ccn1-c1ncc(C(F)(F)F)cc1Cl` [Comparative compound 1]: 7%; for `O=c1cc(C(F)(F)F)ncn1-c1ncc(C(F)(F)F)cc1Cl` [Comparative compound 2]: 14%.
